The compounds below were run against T1, farnesyl protein transferase (Rattus norvegicus, UniProt Q02293+Q04631) (assay: FPT IC50 (inhibition of farnesyl protein transferase, in vitro enzyme assay; Ras-CVLS farnesylation by partially purified rat brain FPT)).
T1 construct: partially purified rat brain farnesyl protein transferase (FPT); from tissue; host or cells: rat brain
Type: biochemical
Procedure: 1. In vitro enzyme assays: FPT IC50 (inhibition of farnesyl protein transferase, in vitro enzyme assay) are determined by the methods disclosed in […] or WO 95/10516.

| IC50 [nM] | Compound |
| --- | --- |
| 42 | CSC(=NC#N)N1CCC(=C2c3ccc(Cl)c(Br)c3CCc3cc(Br)cnc32)CC1 [Example 56] |
| 170 | N#CN=C(NC1CCN(Cc2ccccc2)CC1)N1CCC(=C2c3ccc(Cl)cc3CCc3cc(Br)cnc32)CC1 [Example 22] |
| 150 | N#CN=C(Nc1ccc2ncccc2c1)N1CCC(=C2c3ccc(Cl)cc3CCc3cc(Br)cnc32)CC1 [Example 46] |
| 18 | N#CN=C(Nc1ccc2c(c1)COCO2)N1CCC(=C2c3ccc(Cl)cc3CCc3cccnc32)CC1 [Example 10] |
| 24 | N#CN/C(=N/Cc1ccc2c(c1)OCO2)N1CCC(=C2c3ccc(Cl)cc3CCc3cc(Br)cnc32)CC1 [Example 52] |
| < 410 | CSC(=NC#N)N1CCC(=C2c3ccc(Cl)cc3CCc3cc(Br)cnc32)CC1 [Example 12] |
| 3.7 | N#CN=C(NCCOCCO)N1CCC(C2c3ccc(Cl)c(Br)c3CCc3cc(Br)cnc32)CC1 (stereo not drawn) [Example 69] |
| 4.6 | N#CN=C(NCc1ccc[n+]([O-])c1)N1CCC(=C2c3ccc(Cl)c(Br)c3CCc3cc(Br)cnc32)CC1 [Example 81] |
| 720 | N#CN=C(N1CCOCC1)N1CCC(=C2c3ccc(Cl)cc3CCc3cc(Br)cnc32)CC1 [Example 13] |
| 7 | N#CN=C(NCCCN1CCCC1=O)N1CCC(C2c3ccc(Cl)c(Br)c3CCc3cc(Br)cnc32)CC1 (stereo not drawn) [Example 68] |
| 64 | N#CN=C(NCc1ccncc1)N1CCC(=C2c3ccc(Cl)cc3CCc3cccnc32)CC1 [Example 78] |
| 260 | CN1CCN(NC(=NC#N)N2CCC(=C3c4ccc(Cl)cc4CCc4cc(Br)cnc43)CC2)CC1 [Example 31] |
| 1.7 | N#CN=C(NCc1ccncc1)N1CCC(C2c3ccc(Cl)c(Br)c3CCc3cc(Br)cnc32)CC1 (stereo not drawn) [Example 67] |
| 10 | N#CN=C(Nc1ccc2c(c1)COCO2)N1CCN(C2c3ccc(Cl)cc3CCc3cc(Br)cnc32)CC1 (stereo not drawn) [Example 24] |
| 4.8 | N#CN=C(NCc1cccnc1)N1CCC(=C2c3ccc(Cl)c(Br)c3CCc3cc(Br)cnc32)CC1 [Example 75] |
| 5 | N#CN=C(NCc1ccncc1)N1CCC(=C2c3ccc(Cl)c(Br)c3CCc3cc(Br)cnc32)CC1 [Example 61] |
| 110 | N#CN=C(Nc1ccc2c(c1)OCCO2)N1CCC(=C2c3ccc(Cl)cc3CCc3cc(Br)cnc32)CC1 [Example 55] |
| 14 | CSC(=NC#N)N1CCC(=C2c3ccc(Cl)c(Br)c3CCc3cc(Br)cnc32)CC1 [Example 66] |
| > 110 | N#CN/C(=N/c1ccncc1)N1CCC(=C2c3ccc(Cl)cc3CCc3cc(Br)cnc32)CC1 [Example 54] |
| 17 | N#CN=C(NCCO)N1CCC(=C2c3ccc(Cl)cc3CCc3cc(Br)cnc32)CC1 [Example 27] |
| 4.7 | N#CN=C(NCC1CCNCC1)N1CCC(=C2c3ccc(Cl)c(Br)c3CCc3cc(Br)cnc32)CC1 [Example 76] |

| IC50 [nM] | Compound |
| --- | --- |
| 300 | Cn1c(NC(=NC#N)N2CCC(=C3c4ccc(Cl)cc4CCc4cc(Br)cnc43)CC2)cc(=O)n(C)c1=O [Example 50] |
| 87 | N#CN=C(NCc1ccc(N)cc1)N1CCC(=C2c3ccc(Cl)cc3CCc3cc(Br)cnc32)CC1 [Example 53] |
| 9600 | N#CN=C(Nc1ccc2c(c1)COCO2)N1CCC(C2c3ccc(Cl)cc3C=Cc3cc(Br)cnc32)CC1 (stereo not drawn) [Example 34] |
| 270 | N#CN=C(N1CCCCC1)N1CCC(=C2c3ccc(Cl)cc3CCc3cc(Br)cnc32)CC1 [Example 32] |
| > 33 | N#CN=C(c1ccncc1)N1CCC(C2c3ncc(Br)cc3CCc3cc(Cl)cc(Br)c32)CC1 (stereo not drawn) [Example 83] |
| 11 | N#CN=C(NCc1ccncc1)N1CCN(C2c3ccc(Cl)cc3CCc3cc(Br)cnc32)CC1 (stereo not drawn) [Example 43] |
| > 100 | N#CN=C(NCc1ccc2c(c1)OCO2)N1CCC(=C2c3ccc(Cl)c(Br)c3CCc3cc(Br)cnc32)CC1 [Example 72] |
| 14 | N#CN=C(Nc1ccc2c(c1)COCO2)N1CCC(=C2c3ccc(Cl)c(Br)c3CCc3cccnc32)CC1 [Example 47] |
| 140 | N#CN=C(Nc1cccnc1)N1CCC(=C2c3ccc(Cl)cc3CCc3cc(Br)cnc32)CC1 [Example 23] |
| 4.4 | N#CN=C(NCC1CCN(C(N)=O)CC1)N1CCC(=C2c3ccc(Cl)c(Br)c3CCc3cc(Br)cnc32)CC1 [Example 77] |
| 64 | N#C/N=C(\Nc1ccc([N+](=O)[O-])cc1)N1CCC(=C2c3ccc(Cl)cc3CCc3cc(Br)cnc32)CC1 [Example 48] |
| 2800 | N#CN=C(N)N1CCC(=C2c3ccc(Cl)cc3CCc3cc(Br)cnc32)CC1 [Example 33] |
| 13 | N#CN=C(Nc1cc[n+]([O-])cc1)N1CCC(=C2c3ccc(Cl)cc3CCc3cc(Br)cnc32)CC1 [Example 49] |
| 87 | CS(=O)(=O)c1ccc(N/C(=N\C#N)N2CCC(=C3c4ccc(Cl)cc4CCc4cc(Br)cnc43)CC2)cc1 [Example 59] |
| 15 | N#CN=C(NCc1ccc(S(N)(=O)=O)cc1)N1CCC(=C2c3ccc(Cl)c(Br)c3CCc3cc(Br)cnc32)CC1 [Example 74] |
| > 950 | COc1ccc2[nH]cc(CCNC(=NC#N)N3CCC(=C4c5ccc(Cl)cc5CCc5cc(Br)cnc54)CC3)c2c1 [Example 64] |
| 26 | CSC(=NC#N)N1CCC(=C2c3ccc(Cl)cc3CCc3cc(Br)cnc32)CC1 [Example 73] |
| 54 | CCOC(=NC#N)N1CCC(=C2c3ccc(Cl)cc3CCc3cc(Br)cnc32)CC1 [Example 16] |
| 74 | CN(C)CCCNC(=NC#N)N1CCC(=C2c3ccc(Cl)cc3CCc3cc(Br)cnc32)CC1 [Example 45] |
| 73 | N#CN=C(NCc1ccco1)N1CCC(=C2c3ccc(Cl)cc3CCc3cc(Br)cnc32)CC1 [Example 51] |
| 38 | N#CN=C(Nc1ccc(N2CCOCC2)cc1)N1CCC(=C2c3ccc(Cl)c(Br)c3CCc3cc(Br)cnc32)CC1 [Example 80] |

What follows are compounds tested on Ras processing (assay: COS IC50, cell-based assay: COS cells activity inhibition of Ras processing).
Procedure: 2. Cell-based assay. COS IC50 values refer to the COS cells activity inhibition of Ras processing, are determined by the methods disclosed in […] or WO 95/10516.

| IC50 [nM] | Compound |
| --- | --- |
| 480 | N#CN=C(NC1CCCCC1)N1CCC(=C2c3ccc(Cl)cc3CCc3cc(Br)cnc32)CC1 [Example 19] |
| 250 | N#CN=C(Nc1ccc2c(c1)COCO2)N1CCC(=C2c3ccc(Cl)cc3CCc3cccnc32)CC1 [Example 10] |
| 250 | N#CN=C(Nc1ccc2c(c1)COCO2)N1CCC(=C2c3ccc(Cl)cc3CCc3cc(Br)cnc32)CC1 [Example 11] |
| 1600 | CCCCNC(=NC#N)N1CCC(=C2c3ccc(Cl)cc3CCc3cc(Br)cnc32)CC1 [Example 20] |
| < 250 | N#CN=C(Nc1ccc2c(c1)COCO2)N1CCN(C2c3ccc(Cl)cc3CCc3cc(Br)cnc32)CC1 (stereo not drawn) [Example 24] |
| 570 | N#CN=C(Nc1ccc(F)cc1)N1CCC(=C2c3ccc(Cl)cc3CCc3cc(Br)cnc32)CC1 [Example 29] |
| > 1000 | N#CN=C(NCc1ccc[n+]([O-])c1)N1CCC(=C2c3ccc(Cl)cc3CCc3cc(Br)cnc32)CC1 [Example 60] |
| 5000 | CNC(=NC#N)N1CCC(=C2c3ccc(Cl)cc3CCc3cc(Br)cnc32)CC1 [Example 17] |
| 700 | N#CN=C(NCc1cccnc1)N1CCC(=C2c3ccc(Cl)cc3CCc3cc(Br)cnc32)CC1 [Example 41] |
| 280 | N#CN=C(Nc1ccc(C#N)cc1)N1CCC(=C2c3ccc(Cl)cc3CCc3cc(Br)cnc32)CC1 [Example 37] |
| 2600 | N#CN=C(NCCO)N1CCC(=C2c3ccc(Cl)cc3CCc3cc(Br)cnc32)CC1 [Example 27] |
| 280 | N#CN=C(NCCc1ccncc1)N1CCC(=C2c3ccc(Cl)cc3CCc3cc(Br)cnc32)CC1 [Example 36] |
| 750 | N#CN=C(NCc1ccccn1)N1CCC(=C2c3ccc(Cl)cc3CCc3cc(Br)cnc32)CC1 [Example 26] |
| 800 | N#CN=C(Nc1ccc2c(c1)OCO2)N1CCC(=C2c3ccc(Cl)cc3CCc3cc(Br)cnc32)CC1 [Example 18] |
| 2500 | N#CN=C(Nc1ccccc1)N1CCC(=C2c3ccc(Cl)cc3CCc3cccnc32)CC1 [Example 14] |
| 2400 | N#CN=C(Nc1cccnc1)N1CCC(=C2c3ccc(Cl)cc3CCc3cc(Br)cnc32)CC1 [Example 23] |
| 4000 | N#CN=C(NCCCn1ccnc1)N1CCC(=C2c3ccc(Cl)cc3CCc3cc(Br)cnc32)CC1 [Example 42] |
| 16000 | N#CN=C(NCc1cc[n+]([O-])cc1)N1CCC(=C2c3ccc(Cl)cc3CCc3cc(Br)cnc32)CC1 [Example 70] |
| 270 | COc1ccc(NC(=NC#N)N2CCC(=C3c4ccc(Cl)cc4CCc4cc(Br)cnc43)CC2)cc1 [Example 25] |
| 2300 | CCOC(=NC#N)N1CCC(=C2c3ccc(Cl)cc3CCc3cc(Br)cnc32)CC1 [Example 16] |
| 560 | CCOC(=O)N1CCC(NC(=NC#N)N2CCC(=C3c4ccc(Cl)cc4CCc4cc(Br)cnc43)CC2)CC1 [Example 15] |

Reference: patent publication US5925648A, “Tricyclic N-cyanoimines useful as inhibitors of a farnesyl-protein transferase” (Schering Corporation, priority 1997, dated 1999)
